Data as given in patent publication US20030144194A1, “Cancer treatment and prognosis” (priority 2000, published 2003).

Legend:
HES-1 [1] = experiment: Western blot of HES-1 protein in nuclear extracts of breast cancer cell lines; type: cell-based; conditions: for effect on 17β-estradiol-mediated down regulation of HES-1 protein: antiestrogen together with 17β-estradiol, FIG. 1C
Method: FIG. 1(B) Regulation of HES-1 by 17β-estradiol in breast cancer cell lines; 50 μg of nuclear extract protein was used;
(§1) T47D cells were cultured in a 1:1 mixture of Hams F 12 and DME with 10% fetal bovine serum, MCF-7, MDA-MB-231 and COS-7 cells were cultured in DME with 10% fetal bovine serum. Before experiments with estrogen, the media were switched and phenol red free and DCC charcoal treated with serum were used. Culture conditions were set at 37° C., 5% CO2 and 100% humidity. For creation of tetracycline inducible stably transfected clones the tet-regulated expression system from Bibco BRL was used. A puromycin resistance gene was cloned into pTet TAk. T47D cells were then transfected with lipofectin (GibcoBRL) according to the manufacturer's instructions. Transfectants were selected with puromycin at 1 μg/ml. […] Transfectants were selected using G418 (Calbiochem) at 500 μg/ml. Cells lines stably transfected with tetracycline regulated expression constructs were grown in the presence of 1 μg/ml of tetracycline. At the time of induction the medium was removed and the cells were washed with PBS two times before adding new medium without tetracycline.
Nuclear extract and RNA preparation was carried out according to the protocol by Schreiber et al (E. Schreiber, et al., Nucleic Acids Res 17, 6419 (1989)) except that PBS was used instead of TBS and the following inhibitors were added: leupeptin at 1 μg/ml, PMSF at 0.2 mM, […] Na3VO4, 1 mM NaPPi, 1 mM NaF, 100 μM Na2MO4 (all from Sigma). Nuclear extracts were prepared from cells grown to a confluency of 60%-70% on a 150 mm culture dish. Protein content was determined by Bradford assay (BioRad).
(§2) Two peptides with identical sequence parts of HES-1 protein were synthesised and simultaneously injected into one rabbit (Genosys). The peptides were […] […] and […]. For Western blots, 100 μg of nuclear extract was separated on a 12% SDS-PAGE. Western blot analysis was performed according to standard protocols (Harlow and Lane, E. Harlow, and D. Lane, Cold Spring Harbour Laboratory Press, Cold Spring Harbour, N.Y., (1988)). HES-1 antibody was used at a dilution of 1:1000. The PCNA (C-10) antibody was from Santa Cruz and used at 1:1000. Donkey, anti-rabbit and sheep anti-mouse IgG HRP conjugated antibody (Amersham) were used at 1:10000. Antibody binding was visualised using ECL, Super Signal (Pierce).

[2] = test system: proliferating cell nuclear antigen (PCNA); experiment: PCNA Western blot on nuclear extracts of tet-regulated FLAG HES-1 T47D cells; type: cell-based
Method: (§3) FIG. 2 illustrates a proliferation assay T47D cells stably transfected with tetracycline regulated FLAG HES-1 expression. (A) Relative proliferation of two different clones HES-1(1) and HES-1(2) with inducible FLAG HES-1 expression, and two control clones. Tetracycline at 1 μg/ml and 17β-estradiol at 10 nM were used when stated. Data represents an average of six independent measurements. (B) Western blot of endogenous HES-1 and FLAG HES-1 expression in HES-1(1) and HES-1(2) cell lines with antibody against HES-1. PCNA Western blot on same extracts 50 μg of nuclear protein was used;
as §2

histone acetylation = conditions: MCF-7 breast cancer cells, Pasqualini et al (1989); cited from earlier work
T47D breast cancer cells = experiment: Proliferation assay, T47D cells stably transfected with tetracycline regulated FLAG HES-1 expression; type: cell-based
Method: as §3, §1
A proliferation determination kit from BioThema (A. Lundin, Methods Enzymol 305, 346-370 (1999)). The kit is based on measuring ATP and since the ATP level is constant between cells this can be used to evaluate the number of cells. The cells were grown on 24 well plates at 1000 cells/well. Treatment with hormone was in phenol red-free medium supplemented with 10% DCC treated fetal calf serum. […] Luciferase activity was measured using a Berthold luminometer.

HES-1 [3] = experiment: All-trans retinoic acid effect on 17β-estradiol-dependent down regulation of HES-1 expression in MCF-7 cells (Western blot); type: cell-based; conditions: 1 μM all-trans retinoic acid, 17β estradiol 0.1 and 1 nM, 3 days
Method: MCF-7 cells were grown on 150 mm plates to 70% confluency in DME medium supplemented with 10% FBS. The medium was then changed to phenolAred free DME supplemented with DCC treated FBS to which 17β estradiol 0.1 and 1 nM respectively and 1 μM of all-trans retinoic acid was added individually or in combination. The plates were then incubated for 3 days in a humidified incubator at 37° C. and 5% CO2. Nuclear extract was produced according to Schreiber et al (E. Schreiber et al (1989) Nucleic Acids Res 17: 6419). 50 μg of this nuclear extract was then run on SDS-PAGE and blotted over to nitrocellulose membrane Hybond C super (Amersham). HES-1 protein was then detected using HES-1 antibody.

CMV promoter = conditions: L. D. Dion et al., Virology 231 (1997); cited from earlier work
ERβ = biological target: T1, ERβ (Homo sapiens, UniProt Q92731); experiment: ERE TATA LUC reporter in COS-7 cells transfected with ERβ; type: cell-based; conditions: FIG. 9
T1 construct: FLAG; expressed in transfected cells; host or cells: COS-7
Text: FIG. 9. Transient transfection of COS-7 cells using the ERE reporter vector ERE TATA LUC and expression vectors FLAG […] and FLAG HES-1 and treated with E2 and the histone deacetylase inhibitor Tricostatin A (TSA).

[4] = biological target: T2, estrogen receptor α (ERα) (Homo sapiens, UniProt P03372); experiment: ERE TATA LUC reporter in COS-7 cells transfected with ERα; type: cell-based
T2 construct: FLAG; expressed in transfected cells; host or cells: COS-7
T2 sequence (P03372 1-595): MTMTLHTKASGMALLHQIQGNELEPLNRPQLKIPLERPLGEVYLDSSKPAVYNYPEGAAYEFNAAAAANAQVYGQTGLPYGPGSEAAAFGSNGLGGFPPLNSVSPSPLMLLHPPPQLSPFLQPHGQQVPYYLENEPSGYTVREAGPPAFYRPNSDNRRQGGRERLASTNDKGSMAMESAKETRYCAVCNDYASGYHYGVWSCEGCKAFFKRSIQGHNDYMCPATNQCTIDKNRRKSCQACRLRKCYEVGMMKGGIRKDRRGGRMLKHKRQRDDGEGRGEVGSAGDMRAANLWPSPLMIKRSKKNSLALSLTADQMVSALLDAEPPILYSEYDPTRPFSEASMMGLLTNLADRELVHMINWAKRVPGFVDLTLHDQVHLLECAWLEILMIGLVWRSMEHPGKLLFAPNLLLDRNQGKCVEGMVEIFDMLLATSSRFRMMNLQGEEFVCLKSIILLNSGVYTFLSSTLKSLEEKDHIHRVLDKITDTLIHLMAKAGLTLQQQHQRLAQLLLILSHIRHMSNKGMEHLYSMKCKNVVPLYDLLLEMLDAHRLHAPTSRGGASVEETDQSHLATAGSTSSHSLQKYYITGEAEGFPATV
Method: FIG. 5. Transfection of COS-7 cells with 3X ERE TATA LUC 1 μg and 100 ng of pcDNA3 FLAG ERα.
FIG. 8. Transient transfection of COS-7 cells using the ERE reporter vector ERE TATA LUC and expression vectors FLAG ERα and FLAG HES-1 and treated with E2 and the histone deacetylase inhibitor Trichostatin A (TSA).
Human ERα was epitope tagged with the artificial “FLAG” epitope using PCR cloning. The VP16 activation domain was fused to the N-tenninus of rat HES-1.

T1 sequence (Q92731 whole entry, species assumed): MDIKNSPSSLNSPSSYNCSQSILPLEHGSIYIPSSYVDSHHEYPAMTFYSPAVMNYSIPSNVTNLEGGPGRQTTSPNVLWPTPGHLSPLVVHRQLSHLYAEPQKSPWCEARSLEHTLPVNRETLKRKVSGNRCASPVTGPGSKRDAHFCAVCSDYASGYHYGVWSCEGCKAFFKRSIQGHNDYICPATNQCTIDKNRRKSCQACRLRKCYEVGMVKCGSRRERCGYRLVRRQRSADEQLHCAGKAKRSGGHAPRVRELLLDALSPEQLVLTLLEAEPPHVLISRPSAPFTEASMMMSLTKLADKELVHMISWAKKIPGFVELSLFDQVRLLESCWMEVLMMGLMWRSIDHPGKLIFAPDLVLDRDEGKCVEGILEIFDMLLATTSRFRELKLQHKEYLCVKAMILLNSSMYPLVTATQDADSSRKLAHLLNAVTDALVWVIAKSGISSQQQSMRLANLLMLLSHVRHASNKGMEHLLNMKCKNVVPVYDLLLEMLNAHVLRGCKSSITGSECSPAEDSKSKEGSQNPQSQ

## CC/C(=C(\c1ccc(O)cc1)c1ccc(OCCN(C)C)cc1)c1ccccc1 [4OH tamoxifen]
HES-1 [1]
  effect on 17β-estradiol-mediated down regulation of HES-1 protein: prevented

## C[C@]12CC[C@@H]3c4ccc(O)cc4CC[C@H]3[C@@H]1CC[C@@H]2O [17β-estradiol]
[2]; absence of exogenous FLAG-HES-1 expression
  regulation of proliferation marker PCNA: upregulated twofold
[2]; presence of exogenous FLAG-HES-1
  regulation of proliferation marker PCNA: no regulation
Histone acetylation
  histone acetylation: decreases
HES-1 [1]; MCF-7 breast cancer cells
  expressed protein levels of HES-1: suppress
HES-1 [1]; MDA-MB-231 breast cancer cells (lack ERα)
  17β-estradiol-mediated suppression of HES-1: lack of 17β-estradiol-mediated suppression
HES-1 [1]; T47D breast cancer cells
  expressed protein levels of HES-1: suppress
T47D breast cancer cells; absence of tetracycline (with induced HES-1 expression), 17β-estradiol 10 nM
  stimulation of proliferation: no 17β-estradiol stimulated proliferation
T47D breast cancer cells; presence of tetracycline (without induced HES-1 expression), 17β-estradiol 10 nM
  stimulation of proliferation: two-fold stimulation
T47D breast cancer cells; two control cell lines with tetracycline-regulated vector lacking FLAG-HES-1
  stimulation of proliferation: exhibited 17β-estradiol-stimulated proliferation

## C[C@]12CC[C@@H]3c4ccc(O)cc4C[C@@H](CCCCCCCCC[S+]([O-])CCCC(F)(F)C(F)(F)F)[C@H]3[C@@H]1CC[C@@H]2O (stereo partly drawn) [ICI 182,780]
HES-1 [1]
  effect on 17β-estradiol-mediated down regulation of HES-1 protein: prevented

## CC1=C(/C=C/C(C)=C/C=C/C(C)=C/C(=O)O)C(C)(C)CCC1 [all-trans retinoic acid]
HES-1 [3]
  effect on 17β-estradiol-dependent down regulation of HES-1 expression: inhibits

## CCCC(=O)O.COc1cccc(C#CCON=C2CN3CCC2C3)c1 (stereo not drawn) [n-butyrate]
CMV promoter
  CMV promoter activity: induce

## O=C(c1ccc(OCN2CCCCC2)cc1)c1c(-c2ccc(O)cc2)sc2cc(O)ccc12 [raloxifen]
HES-1 [1]
  effect on 17β-estradiol-mediated down regulation of HES-1 protein: prevented

## CC(/C=C/C(=O)NO)=C\[C@@H](C)C(=O)c1ccc(N(C)C)cc1 [trichostatin A]
ERβ
  17β-estradiol response on addition of TSA in combination with HES-1: no significant difference
CMV promoter
  CMV promoter activity: induce
[4]; COS-7 cells treated with 5 ng/ml trichostatin A for 8 hrs
  makes 4OH tamoxifen into an effective agonist on ERE TATA LUC: same result
[4]; COS-7 cells, ERα, FIG. 8
  17β-estradiol response on addition of TSA together with HES-1: much larger response
